Measured values taken from patent publication US8802597B2, “Herbicidal pyrimidines” (E I du Pont de Nemours and Company, priority 2003, dated 2014).
Read-outs that look alike come from different tables or passages of the source.

Assays:
Assay type in all cases: in vivo
soybean (Glycine max) = assay: Test C pre/postemergence; conditions: Glycine max; for plant injury at 62 g/ha: 62 g ai/ha; for plant injury at 125 g/ha: 125 g ai/ha; for plant injury at 250 g/ha: 250 g ai/ha; for plant injury at 500 g/ha: 500 g ai/ha; for plant injury at 31 g/ha: 31 g ai/ha
From the text: (§1) Seeds or nutlets of plant species selected from bermudagrass (Cynodon dactylon), Surinam grass (Brachiaria decumbens), cocklebur (Xanthium strumarium), corn (Zea mays), crabgrass (Digitaria sanguinalis), woolly cupgrass (Eriochloa villosa), giant foxtail (Setaria faberii), goosegrass (Eleusine indica), johnsongrass (Sorghum halepense), kochia (Kochia scoparia), lambsquarters (Chenopodium album), morningglory (Ipomoea coccinea), eastern black nightshade (Solanum ptycanthum), yellow nutsedge (Cyperus esculentus), pigweed (Amaranthus retroflexus), common ragweed (Ambrosia elatior), soybean (Glycine max), common (oilseed) sunflower (Helianthus annuus), and velvetleaf (Abutilon theophrasti) were planted and treated preemergence with test chemicals formulated in a non-phytotoxic solvent mixture which included a surfactant.
(§2) At the same time, plants selected from these crop and weed species and also winter barley (Hordeum vulgare), blackgrass (Alopecurus myosuroides), canarygrass (Phalaris minor), chickweed (Stellaria media), downy brome (Bromus tectorum), green foxtail (Setaria viridis), Italian ryegrass (Lolium multiflorum), wheat (Triticum aestivum), wild oat (Avena fatua) and windgrass (Apera spica-venti) were treated with postemergence applications of some of the test chemicals formulated in the same manner. Plants ranged in height from 2 to 18 cm (1- to 4-leaf stage) for postemergence treatments. Plant species in the flooded paddy test consisted of rice (Oryza sativa), umbrella sedge (Cyperus difformis), duck salad (Heteranthera limosa) and barnyardgrass (Echinochloa crus-galli) grown to the 2-leaf stage for testing. Treated plants and controls were maintained in a greenhouse for 12 to 14 days, after which time all species were compared to controls and visually evaluated. Plant response ratings, summarized in Table C, are based on a scale of 0 to 100 where 0 is no effect and 100 is complete control. A dash (-) response means no test result.

corn (Zea mays) = assay: Test C pre/postemergence; conditions: Zea mays; for Corn plant response rating (crop injury, 0 = no effect, 100 = complete kill) at 62 g/ha: 62 g ai/ha; for Corn plant response rating (crop injury, 0 = no effect, 100 = complete kill) at 125 g/ha: 125 g ai/ha; for Corn plant response rating (crop injury, 0 = no effect, 100 = complete kill) at 250 g/ha: 250 g ai/ha; for Corn plant response rating (crop injury, 0 = no effect, 100 = complete kill) at 500 g/ha: 500 g ai/ha; for Corn plant response rating (crop injury, 0 = no effect, 100 = complete kill) at 31 g/ha: 31 g ai/ha
From the text: as §1, §2

[1] = tested on: goosegrass (Eleusine indica); assay: Test C pre/postemergence; conditions: Eleusine indica; for pest or weed control at 62 g/ha: 62 g ai/ha; for pest or weed control at 125 g/ha: 125 g ai/ha; for pest or weed control at 250 g/ha: 250 g ai/ha; for pest or weed control at 500 g/ha: 500 g ai/ha; for pest or weed control at 31 g/ha: 31 g ai/ha
From the text: as §1, §2

[2] = tested on: lambsquarters (Chenopodium album); assay: Test C pre/postemergence; conditions: Chenopodium album; for pest or weed control at 62 g/ha: 62 g ai/ha; for pest or weed control at 125 g/ha: 125 g ai/ha; for pest or weed control at 250 g/ha: 250 g ai/ha; for pest or weed control at 500 g/ha: 500 g ai/ha; for pest or weed control at 31 g/ha: 31 g ai/ha
From the text: as §1, §2

[3] = tested on: chickweed (Stellaria media); assay: Test C postemergence; conditions: Stellaria media, post-emergence; for pest or weed control at 62 g/ha: 62 g ai/ha, scale 0 to 100 (0 no effect, 100 complete control), read-out: Chickweed plant response rating; for pest or weed control at 125 g/ha: 125 g ai/ha; for pest or weed control at 250 g/ha: 250 g ai/ha
Procedure, shortened: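 Visual injury ratings, 0 (no effect) to 100 (complete control), made 12 to 14 days after treatment by comparison with untreated controls. Greenhouse plants received test chemical in a surfactant-containing non-phytotoxic solvent, either preemergence on planted seeds or postemergence at the 1- to 4-leaf stage.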

[4] = post-emergence, Postemergence, scale 0 to 100 (0 no effect, 100 complete control), read-out: Soybean plant response rating
[5] = post-emergence, Postemergence, scale 0 to 100, read-out: Plant response rating, Soybean
[6] = pre-emergence, Preemergence, scale 0 to 100, 0 no effect, 100 complete control, read-out: Plant response rating, Soybean
[7] = pre-emergence, Preemergence, scale 0 to 100, read-out: Plant response rating, Soybean
[8] = post-emergence, Postemergence, scale 0 to 100 (0 no effect, 100 complete control), read-out: Corn plant response rating
[9] = post-emergence, Postemergence, scale 0 to 100
[10] = pre-emergence, Preemergence, scale 0 to 100, read-out: Plant response rating, Corn
[11] = pre-emergence, Preemergence, scale 0 to 100
[12] = post-emergence, Postemergence, scale 0 to 100 (0 no effect, 100 complete control), read-out: Goosegrass plant response rating
[13] = post-emergence, Postemergence, scale 0 to 100, read-out: Plant response rating, Goosegrass
[14] = pre-emergence, Preemergence, scale 0 to 100, 0 no effect, 100 complete control, read-out: Plant response rating, Goosegrass
[15] = pre-emergence, Preemergence, scale 0 to 100, read-out: Plant response rating, Goosegrass
[16] = post-emergence, Postemergence, scale 0 to 100 (0 no effect, 100 complete control), read-out: Lambsquarters plant response rating
[17] = post-emergence, Postemergence, scale 0 to 100, read-out: Plant response rating, Lambsquarters
[18] = pre-emergence, Preemergence, scale 0 to 100, 0 no effect, 100 complete control, read-out: Plant response rating, Lambsquarters
[19] = pre-emergence, Preemergence, scale 0 to 100, read-out: Plant response rating, Lambsquarters
[20] = scale 0 to 100, read-out: Plant response rating, Chickweed
[21] = pre-emergence, Preemergence, scale 0 to 100, 0 no effect, 100 complete control, read-out: Plant response rating, Corn

Structure (SMILES)	plant injury at 62 g/ha (soybean (Glycine max); [4]) [%]	plant injury at 125 g/ha (soybean (Glycine max); [4]) [%]	plant injury at 250 g/ha (soybean (Glycine max); [5]) [%]	plant injury at 62 g/ha (soybean (Glycine max); [6]) [%]	plant injury at 125 g/ha (soybean (Glycine max); [7]) [%]	plant injury at 250 g/ha (soybean (Glycine max); [7]) [%]	Corn plant response rating (crop injury, 0 = no effect, 100 = complete kill) at 62 g/ha (corn (Zea mays); [8]) [%]	Corn plant response rating (crop injury, 0 = no effect, 100 = complete kill) at 125 g/ha (corn (Zea mays); [8]) [%]	Corn plant response rating (crop injury, 0 = no effect, 100 = complete kill) at 250 g/ha (corn (Zea mays); [9]) [%]	Corn plant response rating (crop injury, 0 = no effect, 100 = complete kill) at 125 g/ha (corn (Zea mays); [10]) [%]	Corn plant response rating (crop injury, 0 = no effect, 100 = complete kill) at 250 g/ha (corn (Zea mays); [11]) [%]	pest or weed control at 62 g/ha [1, 12] [%]	pest or weed control at 125 g/ha [1, 12] [%]	pest or weed control at 250 g/ha [1, 13] [%]	pest or weed control at 62 g/ha [1, 14] [%]	pest or weed control at 125 g/ha [1, 15] [%]	pest or weed control at 250 g/ha [1, 15] [%]	pest or weed control at 62 g/ha [2, 16] [%]	pest or weed control at 125 g/ha [2, 16] [%]	pest or weed control at 250 g/ha [2, 17] [%]	also measured
CCOC(=O)c1nc(C2CC2)nc(N)c1Cl [Compound 4, ethyl 6-amino-5-chloro-2-cyclopropyl-4-pyrimidinecarboxylate]	100	100	100	95	100	100	0	80	90	0	75	0	20	65	0	25	55	100	100	100	plant injury at 500 g/ha (soybean (Glycine max); [5]): 100%; plant injury at 500 g/ha (soybean (Glycine max); [7]): 100%; Corn plant response rating (crop injury, 0 = no effect, 100 = complete kill) at 500 g/ha (corn (Zea mays); [9]): 95%; Corn plant response rating (crop injury, 0 = no effect, 100 = complete kill) at 500 g/ha (corn (Zea mays); [11]): 90%; pest or weed control at 500 g/ha [1, 13]: 75%; pest or weed control at 500 g/ha [1, 15]: 65%; pest or weed control at 500 g/ha [2, 17]: 100%; pest or weed control at 62 g/ha [2, 18]: 95%; pest or weed control at 125 g/ha [2, 19]: 100%; pest or weed control at 250 g/ha [2, 19]: 100%; pest or weed control at 500 g/ha [2, 19]: 100%; pest or weed control at 62 g/ha [3]: 30%; pest or weed control at 125 g/ha [3, 20]: 85%; pest or weed control at 250 g/ha [3, 20]: 100%; pest or weed control at 500 g/ha ([3]; 500 g ai/ha, scale 0 to 100, read-out: Plant response rating, Chickweed): 100%
COC(=O)c1nc(C2CC2)nc(N)c1Cl [Compound 9, methyl 6-amino-5-chloro-2-cyclopropyl-4-pyrimidinecarboxylate]	100	100	100	100	100	100	55	65	95	60	75	0	40	45	0	20	50	95	100	100	plant injury at 31 g/ha (soybean (Glycine max); post-emergence, Postemergence, read-out: Plant response rating (scale of 0 to 100), Soybean): 95%; plant injury at 31 g/ha (soybean (Glycine max); [6]): 100%; Corn plant response rating (crop injury, 0 = no effect, 100 = complete kill) at 31 g/ha (corn (Zea mays); post-emergence, Postemergence, read-out: Plant response rating (scale of 0 to 100), Corn): 45%; Corn plant response rating (crop injury, 0 = no effect, 100 = complete kill) at 31 g/ha (corn (Zea mays); [21]): 0%; Corn plant response rating (crop injury, 0 = no effect, 100 = complete kill) at 62 g/ha (corn (Zea mays); [21]): 5%; pest or weed control at 31 g/ha ([1]; post-emergence, Postemergence, read-out: Plant response rating (scale of 0 to 100), Goosegrass): 0%; pest or weed control at 31 g/ha [1, 14]: 0%; pest or weed control at 31 g/ha ([2]; post-emergence, Postemergence, read-out: Plant response rating (scale of 0 to 100), Lambsquarters): 90%; pest or weed control at 31 g/ha [2, 18]: 95%; pest or weed control at 62 g/ha [2, 18]: 100%; pest or weed control at 125 g/ha [2, 19]: 100%; pest or weed control at 250 g/ha [2, 19]: 100%; pest or weed control at 31 g/ha ([3]; 31 g ai/ha, read-out: Plant response rating (scale of 0 to 100), Chickweed): 15%; pest or weed control at 62 g/ha [3]: 85%; pest or weed control at 125 g/ha [3, 20]: 100%; pest or weed control at 250 g/ha [3, 20]: 100%
